Reference: the kinase profiling compilation of Christmann-Franck et al. (2016)

Legend:
Assay in all cases: KINOMEscan competition binding
Conditions in all cases: compound 10.0 µM
[1] = target: NTRK2 (human) (UniProt Q16620)
[2] = target: MAP3K1 (human) (UniProt Q13233)
[3] = target: DCLK1 (human) (UniProt O15075)
[4] = target: DYRK1A (human) (UniProt Q13627)
[5] = target: SLK (human) (UniProt Q9H2G2)
[6] = target: PRKX (human) (UniProt P51817)
[7] = target: CIT (human) (UniProt O14578)
[8] = target: IKBKB (human) (UniProt O14920)
[9] = target: ADCK4 (human) (UniProt Q96D53)
[10] = target: HIPK3 (human) (UniProt Q9H422)
[11] = target: NTRK3 (human) (UniProt Q16288)
[12] = target: SYK (human) (UniProt P43405)
[13] = target: CSNK1G3 (human) (UniProt Q9Y6M4)
[14] = target: PLK4 (human) (UniProt O00444)
[15] = target: EPHB3 (human) (UniProt P54753)
[16] = target: MAP3K6 (human) (UniProt O95382)
[17] = target: MAPK8 (human) (UniProt P45983)
[18] = target: LIMK1 (human) (UniProt P53667)
[19] = target: RIPK1 (human) (UniProt Q13546)
[20] = target: JAK3 JH1 catalytic (human) (UniProt P52333)
[21] = target: CDKL1 (human) (UniProt Q00532)
[22] = target: PRKD1 (human) (UniProt Q15139)
[23] = target: PRKCD (human) (UniProt Q05655)
[24] = target: STK4 (human) (UniProt Q13043)
[25] = target: EPHA1 (human) (UniProt P21709)
[26] = target: CSNK1G2 (human) (UniProt P78368)
[27] = target: MARK3 (human) (UniProt P27448)
[28] = target: KDR (human) (UniProt P35968)
[29] = target: PRKCH (human) (UniProt P24723)
[30] = target: CRK2 (P.falciparum) (UniProt P61075)
[31] = target: PAK7 (human) (UniProt Q9P286)
[32] = target: YES1 (human) (UniProt P07947)
[33] = target: CAMK2D (human) (UniProt Q13557)
[34] = target: TNNI3K (human) (UniProt Q59H18)
[35] = target: PLK1 (human) (UniProt P53350)
[36] = target: RPS6KA6 KD2 (human) (UniProt Q9UK32)
[37] = target: CHEK2 (human) (UniProt O96017)
[38] = target: TLK2 (human) (UniProt Q86UE8)
[39] = target: NTRK1 (human) (UniProt P04629)
[40] = target: MAP4K1 (human) (UniProt Q92918)

Chain of EPHA1 (human) (P21709 whole entry, looked up): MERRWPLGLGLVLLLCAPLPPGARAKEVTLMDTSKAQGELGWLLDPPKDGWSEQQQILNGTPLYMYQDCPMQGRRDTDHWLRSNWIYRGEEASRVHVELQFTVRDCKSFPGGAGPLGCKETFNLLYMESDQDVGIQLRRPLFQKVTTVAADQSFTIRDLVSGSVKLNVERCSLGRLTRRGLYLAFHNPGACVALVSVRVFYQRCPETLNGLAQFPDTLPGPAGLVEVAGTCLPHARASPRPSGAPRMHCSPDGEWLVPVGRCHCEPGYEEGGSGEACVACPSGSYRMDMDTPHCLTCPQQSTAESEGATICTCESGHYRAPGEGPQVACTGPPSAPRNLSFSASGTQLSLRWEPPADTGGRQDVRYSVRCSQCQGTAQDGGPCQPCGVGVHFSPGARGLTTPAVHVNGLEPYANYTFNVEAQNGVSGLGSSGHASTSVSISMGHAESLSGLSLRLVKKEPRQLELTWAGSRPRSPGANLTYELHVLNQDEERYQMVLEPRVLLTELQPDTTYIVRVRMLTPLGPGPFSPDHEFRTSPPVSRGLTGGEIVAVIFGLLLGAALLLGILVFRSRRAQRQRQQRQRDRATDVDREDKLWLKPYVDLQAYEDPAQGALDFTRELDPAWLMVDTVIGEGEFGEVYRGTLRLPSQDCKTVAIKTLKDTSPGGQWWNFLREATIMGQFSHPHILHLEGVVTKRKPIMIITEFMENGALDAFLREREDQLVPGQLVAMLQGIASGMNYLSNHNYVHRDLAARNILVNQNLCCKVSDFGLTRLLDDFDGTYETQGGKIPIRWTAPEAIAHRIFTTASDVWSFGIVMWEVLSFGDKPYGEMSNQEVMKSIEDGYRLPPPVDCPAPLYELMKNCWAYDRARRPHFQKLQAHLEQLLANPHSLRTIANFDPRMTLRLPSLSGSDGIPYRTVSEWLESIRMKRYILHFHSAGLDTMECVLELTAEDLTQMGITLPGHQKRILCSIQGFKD
Chain of DCLK1 (human) (O15075 whole entry, looked up): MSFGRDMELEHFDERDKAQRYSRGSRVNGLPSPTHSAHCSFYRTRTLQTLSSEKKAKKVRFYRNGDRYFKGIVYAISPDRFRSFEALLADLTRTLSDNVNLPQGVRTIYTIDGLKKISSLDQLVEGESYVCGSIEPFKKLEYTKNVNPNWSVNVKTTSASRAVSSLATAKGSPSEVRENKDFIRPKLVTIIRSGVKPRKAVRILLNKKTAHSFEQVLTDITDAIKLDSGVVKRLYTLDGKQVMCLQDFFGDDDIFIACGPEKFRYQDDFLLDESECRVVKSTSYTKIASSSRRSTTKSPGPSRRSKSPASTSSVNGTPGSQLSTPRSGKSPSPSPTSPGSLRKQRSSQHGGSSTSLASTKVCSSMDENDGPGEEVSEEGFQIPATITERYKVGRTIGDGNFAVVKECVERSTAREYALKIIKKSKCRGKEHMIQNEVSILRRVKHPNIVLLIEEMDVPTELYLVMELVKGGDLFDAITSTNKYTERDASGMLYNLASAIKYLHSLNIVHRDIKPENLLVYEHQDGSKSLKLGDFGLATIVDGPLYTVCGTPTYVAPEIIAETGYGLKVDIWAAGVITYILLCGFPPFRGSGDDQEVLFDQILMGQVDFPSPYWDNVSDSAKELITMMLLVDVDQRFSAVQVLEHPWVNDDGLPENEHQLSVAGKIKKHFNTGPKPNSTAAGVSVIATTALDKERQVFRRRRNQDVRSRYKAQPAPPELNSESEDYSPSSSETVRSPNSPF
Chain of MARK3 (human) (P27448 whole entry, looked up): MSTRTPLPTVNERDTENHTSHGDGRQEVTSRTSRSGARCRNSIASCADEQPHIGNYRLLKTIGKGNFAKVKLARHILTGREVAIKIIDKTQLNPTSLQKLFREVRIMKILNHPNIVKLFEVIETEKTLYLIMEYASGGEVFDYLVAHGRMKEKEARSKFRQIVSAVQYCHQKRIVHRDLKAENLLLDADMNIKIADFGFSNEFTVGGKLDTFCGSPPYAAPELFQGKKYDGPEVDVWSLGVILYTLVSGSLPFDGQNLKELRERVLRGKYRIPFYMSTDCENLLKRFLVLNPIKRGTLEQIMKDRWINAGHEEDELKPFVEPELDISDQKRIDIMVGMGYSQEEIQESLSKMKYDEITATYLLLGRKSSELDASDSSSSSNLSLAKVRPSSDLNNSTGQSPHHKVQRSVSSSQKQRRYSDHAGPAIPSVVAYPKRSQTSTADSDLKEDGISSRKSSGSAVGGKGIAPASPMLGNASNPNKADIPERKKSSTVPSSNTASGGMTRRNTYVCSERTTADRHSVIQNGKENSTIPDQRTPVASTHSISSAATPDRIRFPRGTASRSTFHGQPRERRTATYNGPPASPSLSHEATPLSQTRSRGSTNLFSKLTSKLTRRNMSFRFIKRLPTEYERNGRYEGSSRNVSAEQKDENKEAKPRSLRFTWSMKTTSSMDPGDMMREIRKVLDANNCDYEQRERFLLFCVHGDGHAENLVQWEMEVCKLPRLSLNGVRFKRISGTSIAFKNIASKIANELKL
Chain of JAK3 JH1 catalytic (human) (P52333 whole entry, looked up): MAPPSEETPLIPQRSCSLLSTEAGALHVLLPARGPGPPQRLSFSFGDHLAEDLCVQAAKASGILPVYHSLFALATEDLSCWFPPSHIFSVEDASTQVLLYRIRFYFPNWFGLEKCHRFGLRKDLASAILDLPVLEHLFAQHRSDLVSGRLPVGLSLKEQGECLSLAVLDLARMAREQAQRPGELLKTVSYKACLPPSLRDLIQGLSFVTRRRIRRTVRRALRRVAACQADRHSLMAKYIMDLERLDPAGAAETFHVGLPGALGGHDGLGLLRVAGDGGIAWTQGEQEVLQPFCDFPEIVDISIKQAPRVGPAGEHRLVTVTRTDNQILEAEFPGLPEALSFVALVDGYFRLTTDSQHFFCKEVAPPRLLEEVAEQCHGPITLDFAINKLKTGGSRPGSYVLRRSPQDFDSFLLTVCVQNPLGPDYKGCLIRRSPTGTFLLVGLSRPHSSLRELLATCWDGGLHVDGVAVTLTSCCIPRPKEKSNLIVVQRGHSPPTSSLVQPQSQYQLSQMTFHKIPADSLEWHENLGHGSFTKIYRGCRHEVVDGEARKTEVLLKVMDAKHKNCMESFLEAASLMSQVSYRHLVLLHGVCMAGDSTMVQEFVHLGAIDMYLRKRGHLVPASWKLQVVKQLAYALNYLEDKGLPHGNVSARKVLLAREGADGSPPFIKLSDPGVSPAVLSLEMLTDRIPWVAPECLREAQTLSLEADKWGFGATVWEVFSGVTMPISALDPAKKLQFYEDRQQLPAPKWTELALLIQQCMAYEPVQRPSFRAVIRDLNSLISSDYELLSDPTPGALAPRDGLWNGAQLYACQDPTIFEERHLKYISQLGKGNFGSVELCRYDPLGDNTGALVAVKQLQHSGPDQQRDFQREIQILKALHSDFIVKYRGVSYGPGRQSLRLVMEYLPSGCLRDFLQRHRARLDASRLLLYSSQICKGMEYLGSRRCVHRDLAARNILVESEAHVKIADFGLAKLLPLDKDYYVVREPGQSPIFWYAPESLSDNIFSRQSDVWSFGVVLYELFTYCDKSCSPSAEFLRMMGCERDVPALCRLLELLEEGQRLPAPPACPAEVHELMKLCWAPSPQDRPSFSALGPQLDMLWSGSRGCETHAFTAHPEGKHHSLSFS
Chain of MAP3K6 (human) (O95382 whole entry, looked up): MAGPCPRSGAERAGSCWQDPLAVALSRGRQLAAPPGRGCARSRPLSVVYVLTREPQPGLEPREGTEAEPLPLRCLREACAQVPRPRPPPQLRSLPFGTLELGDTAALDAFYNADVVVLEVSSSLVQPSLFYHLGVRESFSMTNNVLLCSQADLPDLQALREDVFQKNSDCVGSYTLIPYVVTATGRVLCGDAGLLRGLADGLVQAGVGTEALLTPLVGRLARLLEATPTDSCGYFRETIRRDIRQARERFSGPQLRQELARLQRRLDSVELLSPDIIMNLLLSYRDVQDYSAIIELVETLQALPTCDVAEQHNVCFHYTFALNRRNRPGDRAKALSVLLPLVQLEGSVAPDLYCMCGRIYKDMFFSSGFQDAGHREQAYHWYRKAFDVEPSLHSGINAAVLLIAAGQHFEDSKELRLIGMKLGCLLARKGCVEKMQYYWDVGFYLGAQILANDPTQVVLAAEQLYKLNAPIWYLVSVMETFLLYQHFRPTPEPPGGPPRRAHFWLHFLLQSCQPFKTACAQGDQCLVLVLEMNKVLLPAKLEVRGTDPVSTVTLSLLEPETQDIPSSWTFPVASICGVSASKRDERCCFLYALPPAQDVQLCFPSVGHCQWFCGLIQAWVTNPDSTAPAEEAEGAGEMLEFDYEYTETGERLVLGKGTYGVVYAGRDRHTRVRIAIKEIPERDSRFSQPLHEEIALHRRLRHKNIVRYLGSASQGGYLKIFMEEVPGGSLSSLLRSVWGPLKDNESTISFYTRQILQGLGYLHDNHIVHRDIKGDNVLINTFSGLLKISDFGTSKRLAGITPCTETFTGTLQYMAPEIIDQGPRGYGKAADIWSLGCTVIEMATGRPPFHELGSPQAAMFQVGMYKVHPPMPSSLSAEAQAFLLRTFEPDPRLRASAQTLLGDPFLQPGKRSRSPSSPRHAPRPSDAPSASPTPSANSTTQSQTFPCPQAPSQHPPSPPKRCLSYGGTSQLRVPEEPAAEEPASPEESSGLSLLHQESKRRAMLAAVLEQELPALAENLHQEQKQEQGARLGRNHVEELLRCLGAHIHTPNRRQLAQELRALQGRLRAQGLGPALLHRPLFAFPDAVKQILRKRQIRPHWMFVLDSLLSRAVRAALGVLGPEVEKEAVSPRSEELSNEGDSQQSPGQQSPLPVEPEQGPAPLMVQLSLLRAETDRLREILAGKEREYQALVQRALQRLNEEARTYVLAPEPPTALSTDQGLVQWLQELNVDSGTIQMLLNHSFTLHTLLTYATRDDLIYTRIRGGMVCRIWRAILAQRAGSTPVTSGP

Compound	kinase still bound, per cent of control [1] [%]	kinase still bound, per cent of control [2] [%]	kinase still bound, per cent of control [3] [%]	kinase still bound, per cent of control [4] [%]	kinase still bound, per cent of control [5] [%]	kinase still bound, per cent of control [6] [%]	kinase still bound, per cent of control [7] [%]	kinase still bound, per cent of control [8] [%]	kinase still bound, per cent of control [9] [%]	kinase still bound, per cent of control [10] [%]	kinase still bound, per cent of control [11] [%]	kinase still bound, per cent of control [12] [%]	kinase still bound, per cent of control [13] [%]	kinase still bound, per cent of control [14] [%]	kinase still bound, per cent of control [15] [%]	kinase still bound, per cent of control [16] [%]	kinase still bound, per cent of control [17] [%]	kinase still bound, per cent of control [18] [%]	kinase still bound, per cent of control [19] [%]	kinase still bound, per cent of control [20] [%]	also measured
CCc1nc(-c2cccc(C)c2)c(-c2ccnc(NC(=O)c3ccccc3)c2)s1	100	90	96	69	41	100	0.45	100	2.2	100	96	88	17	100	81	100	0.3	90	95	80	kinase still bound, per cent of control [21]: 100%; kinase still bound, per cent of control [22]: 65%; kinase still bound, per cent of control [23]: 50%; kinase still bound, per cent of control [24]: 74%; kinase still bound, per cent of control [25]: 56%; kinase still bound, per cent of control [26]: 19%; kinase still bound, per cent of control [27]: 72%; kinase still bound, per cent of control [28]: 38%; kinase still bound, per cent of control [29]: 88%; kinase still bound, per cent of control [30]: 100%; kinase still bound, per cent of control [31]: 90%; kinase still bound, per cent of control [32]: 5.6%; kinase still bound, per cent of control [33]: 100%; kinase still bound, per cent of control [34]: 86%; kinase still bound, per cent of control [35]: 100%; kinase still bound, per cent of control [36]: 4.3%; kinase still bound, per cent of control [37]: 80%; kinase still bound, per cent of control [38]: 87%; kinase still bound, per cent of control [39]: 100%; kinase still bound, per cent of control [40]: 86%
COc1cc2c(Nc3ccc(NC(=O)c4ccccc4)cc3)ncnc2cc1OCCCN1CCOCC1	17	92	73	58	0.95	81	59	100	66	52	98	69	100	2	100	100	67	100	100	62	kinase still bound, per cent of control [21]: 81%; kinase still bound, per cent of control [22]: 99%; kinase still bound, per cent of control [23]: 100%; kinase still bound, per cent of control [24]: 78%; kinase still bound, per cent of control [25]: 100%; kinase still bound, per cent of control [26]: 100%; kinase still bound, per cent of control [27]: 96%; kinase still bound, per cent of control [28]: 26%; kinase still bound, per cent of control [29]: 100%; kinase still bound, per cent of control [30]: 100%; kinase still bound, per cent of control [31]: 94%; kinase still bound, per cent of control [32]: 16%; kinase still bound, per cent of control [33]: 100%; kinase still bound, per cent of control [34]: 94%; kinase still bound, per cent of control [35]: 100%; kinase still bound, per cent of control [36]: 71%; kinase still bound, per cent of control [37]: 100%; kinase still bound, per cent of control [38]: 100%; kinase still bound, per cent of control [39]: 16%; kinase still bound, per cent of control [40]: 60%
